The assay in a line: Dissociation constant for binding affinity towards Concanavalin A determined by fluorescence anisotropy inhibition assay.
The Kd is the constant that tells how readily two partners part at equilibrium. Compound `CO[C@H]1O[C@@H](CO[C@H]2S[C@@H](CO)[C@@H](O)[C@H](O)[C@H]2O)[C@@H](O)[C@H](O[C@H]2S[C@@H](CO)[C@@H](O)[C@H](O)[C@H]2O)[C@H]1O` showed a dissociation constant (Kd) of 376 µM.
Then `CO[C@H]1O[C@@H](CO[C@H]2S[C@@H](CO)[C@@H](O)[C@H](O)[C@H]2O)[C@@H](O)[C@H](O[C@H]2O[C@@H](CO)[C@@H](O)[C@H](O)[C@H]2O)[C@H]1O`, with 18 µM; and `CO[C@H]1O[C@@H](CO[C@H]2O[C@@H](CO)[C@@H](O)[C@H](O)[C@H]2O)[C@@H](O)[C@H](O[C@H]2O[C@@H](CO)[C@@H](O)[C@H](O)[C@H]2O)[C@H]1O`, with 3 µM.
Then `CO[C@H]1O[C@@H](CO)[C@@H](O)[C@H](O[C@H]2S[C@@H](CO)[C@@H](O)[C@H](O)[C@H]2O)[C@H]1O`, with 1720 µM; and `CO[C@H]1O[C@@H](CO[C@H]2S[C@@H](CO)[C@@H](O)[C@H](O)[C@H]2O)[C@@H](O)[C@H](O)[C@H]1O`, with 1280 µM; and `CO[C@H]1O[C@@H](CO[C@H]2O[C@@H](CO)[C@@H](O)[C@H](O)[C@H]2O)[C@@H](O)[C@H](O)[C@H]1O`, with 150 µM.
`CO[C@H]1O[C@@H](CO)[C@@H](O)[C@H](O[C@H]2O[C@@H](CO)[C@@H](O)[C@H](O)[C@H]2O)[C@H]1O`: the Kd came to 49 µM.
As for `CO[C@H]1O[C@@H](CO[C@H]2O[C@@H](CO)[C@@H](O)[C@H](O)[C@H]2O)[C@@H](O)[C@H](O[C@H]2S[C@@H](CO)[C@@H](O)[C@H](O)[C@H]2O)[C@H]1O`, the figure is 7 µM.
